Structures can show the parent of a compound that is named as a salt.

Data on one molecule can be found in patent US5977133A, “Pyridone antibiotic with improved safety profile” (priority 1998, dated 1999).

The subject of the experiment is bacteria. The experiment can be described thus: In vitro antibacterial activity (overall statement). Format: cell-based. Conditions: ciprofloxacin resistant strains.

In the case of `CN[C@@H]1CN(c2c(F)cn3c(=O)c(C(=O)O)cc(C4CC4)c3c2C)CC12CC2` [Example 1, 1-cyclopropyl-8-(7(S)-N-methylamino-5-azaspiro[2.4]heptyl)-7-fluoro-9-methyl-4-oxo-4H-guinolizine-3-carboxylic acid hydrochloride], the “activity against ciprofloxacin resistant strains in words” value is given as “highly active against ciprofloxacin resistant strains”.
